PMC4620497 (Scientific Reports, 2015)

Assays:
DMPK = target: T1, DMPK (Homo sapiens, UniProt Q09013); design: method as in earlier work; settings: Table S1; cited from earlier work
T1 construct: purchased DiscoveRx KINOMEscan (Ambit Biosciences)
T1 sequence (Q09013 1-629): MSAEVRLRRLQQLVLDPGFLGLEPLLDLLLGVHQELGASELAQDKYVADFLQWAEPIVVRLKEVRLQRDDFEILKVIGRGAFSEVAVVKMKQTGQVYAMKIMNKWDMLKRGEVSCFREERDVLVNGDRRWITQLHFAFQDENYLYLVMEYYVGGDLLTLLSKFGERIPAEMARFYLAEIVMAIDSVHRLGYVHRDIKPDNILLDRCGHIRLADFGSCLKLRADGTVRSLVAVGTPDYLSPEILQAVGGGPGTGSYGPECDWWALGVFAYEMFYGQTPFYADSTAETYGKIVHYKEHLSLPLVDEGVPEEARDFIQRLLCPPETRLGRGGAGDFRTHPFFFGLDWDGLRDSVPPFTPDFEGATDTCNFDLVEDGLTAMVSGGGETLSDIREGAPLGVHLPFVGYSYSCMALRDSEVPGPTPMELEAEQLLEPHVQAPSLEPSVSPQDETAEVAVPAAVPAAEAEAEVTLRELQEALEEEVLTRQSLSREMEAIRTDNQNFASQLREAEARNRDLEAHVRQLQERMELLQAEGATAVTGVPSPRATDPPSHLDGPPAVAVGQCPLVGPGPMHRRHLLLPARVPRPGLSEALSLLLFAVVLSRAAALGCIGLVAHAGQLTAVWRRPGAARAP

ARK5 = target: T2, ARK5 (Homo sapiens, UniProt O60285); experiment: KINOMEscan panel screen; assay type: binding; settings: read-out: Percent Control(%)
T2 construct: purchased DiscoveRx KINOMEscan (Ambit Biosciences)

BMPR2 = target: T3, BMPR2 (Homo sapiens, UniProt Q13873); experiment: KINOMEscan panel screen; assay type: binding; settings: read-out: Percent Control(%)
T3 construct: purchased DiscoveRx KINOMEscan (Ambit Biosciences)

BUB1 = target: T4, BUB1 (Homo sapiens, UniProt O43683); experiment: KINOMEscan panel screen; assay type: binding; settings: read-out: Percent Control(%)
T4 construct: purchased DiscoveRx KINOMEscan (Ambit Biosciences)

EGFR(T790M) = target: T5, EGFR(T790M) (Homo sapiens, UniProt P00533, T790M); experiment: KINOMEscan panel screen; assay type: binding; settings: read-out: Percent Control(%)
T5 construct: purchased DiscoveRx KINOMEscan (Ambit Biosciences)

EPHA8 = target: T6, EPHA8 (Homo sapiens, UniProt P29322); experiment: KINOMEscan panel screen; assay type: binding; settings: read-out: Percent Control(%)
T6 construct: purchased DiscoveRx KINOMEscan (Ambit Biosciences)

EPHB2 = target: T7, EPHB2 (Homo sapiens, UniProt P29323); experiment: KINOMEscan panel screen; assay type: binding; settings: read-out: Percent Control(%)
T7 construct: purchased DiscoveRx KINOMEscan (Ambit Biosciences)

[1] = target: T8, JAK3(JH1domain-catalytic) (Homo sapiens, UniProt P52333); experiment: KINOMEscan panel screen; assay type: binding; settings: read-out: Percent Control(%)
T8 construct: JAK3(JH1domain-catalytic); purchased DiscoveRx KINOMEscan (Ambit Biosciences)

JNK2 = target: T9, JNK2 (Homo sapiens, UniProt P45984); experiment: KINOMEscan panel screen; assay type: binding; settings: read-out: Percent Control(%)
T9 construct: purchased DiscoveRx KINOMEscan (Ambit Biosciences)

KIT(A829P) = target: T10, KIT(A829P) (Homo sapiens, UniProt P10721, A829P); experiment: KINOMEscan panel screen; assay type: binding; settings: read-out: Percent Control(%)
T10 construct: purchased DiscoveRx KINOMEscan (Ambit Biosciences)

PAK3 = target: T11, PAK3 (Homo sapiens, UniProt O75914); experiment: KINOMEscan panel screen; assay type: binding; settings: read-out: Percent Control(%)
T11 construct: purchased DiscoveRx KINOMEscan (Ambit Biosciences)

PDGFRA = target: T12, PDGFRA (Homo sapiens, UniProt P16234); experiment: KINOMEscan panel screen; assay type: binding; settings: read-out: Percent Control(%)
T12 construct: purchased DiscoveRx KINOMEscan (Ambit Biosciences)

PKMYT1 = target: T13, PKMYT1 (Homo sapiens, UniProt Q99640); experiment: KINOMEscan panel screen; assay type: binding; settings: read-out: Percent Control(%)
T13 construct: purchased DiscoveRx KINOMEscan (Ambit Biosciences)

PKN2 = target: T14, PKN2 (Homo sapiens, UniProt Q16513); experiment: KINOMEscan panel screen; assay type: binding; settings: read-out: Percent Control(%)
T14 construct: purchased DiscoveRx KINOMEscan (Ambit Biosciences)

PRKCI = target: T15, PRKCI (Homo sapiens, UniProt P41743); experiment: KINOMEscan panel screen; assay type: binding; settings: read-out: Percent Control(%)
T15 construct: purchased DiscoveRx KINOMEscan (Ambit Biosciences)

STK36 = target: T16, STK36 (Homo sapiens, UniProt Q9NRP7); experiment: KINOMEscan panel screen; assay type: binding; settings: read-out: Percent Control(%)
T16 construct: purchased DiscoveRx KINOMEscan (Ambit Biosciences)

SYK = target: T17, SYK (Homo sapiens, UniProt P43405); experiment: KINOMEscan panel screen; assay type: binding; settings: read-out: Percent Control(%)
T17 construct: purchased DiscoveRx KINOMEscan (Ambit Biosciences)

TNK2 = target: T18, TNK2 (Homo sapiens, UniProt Q07912); experiment: KINOMEscan panel screen; assay type: binding; settings: read-out: Percent Control(%)
T18 construct: purchased DiscoveRx KINOMEscan (Ambit Biosciences)

FGFR1 = target: T19, FGFR1 (Homo sapiens, UniProt P11362); experiment: KINOMEscan kinase binding assay (Kd)
T19 construct: purchased DiscoveRx KINOMEscan (Ambit Biosciences)
T19 sequence (P11362 22-822): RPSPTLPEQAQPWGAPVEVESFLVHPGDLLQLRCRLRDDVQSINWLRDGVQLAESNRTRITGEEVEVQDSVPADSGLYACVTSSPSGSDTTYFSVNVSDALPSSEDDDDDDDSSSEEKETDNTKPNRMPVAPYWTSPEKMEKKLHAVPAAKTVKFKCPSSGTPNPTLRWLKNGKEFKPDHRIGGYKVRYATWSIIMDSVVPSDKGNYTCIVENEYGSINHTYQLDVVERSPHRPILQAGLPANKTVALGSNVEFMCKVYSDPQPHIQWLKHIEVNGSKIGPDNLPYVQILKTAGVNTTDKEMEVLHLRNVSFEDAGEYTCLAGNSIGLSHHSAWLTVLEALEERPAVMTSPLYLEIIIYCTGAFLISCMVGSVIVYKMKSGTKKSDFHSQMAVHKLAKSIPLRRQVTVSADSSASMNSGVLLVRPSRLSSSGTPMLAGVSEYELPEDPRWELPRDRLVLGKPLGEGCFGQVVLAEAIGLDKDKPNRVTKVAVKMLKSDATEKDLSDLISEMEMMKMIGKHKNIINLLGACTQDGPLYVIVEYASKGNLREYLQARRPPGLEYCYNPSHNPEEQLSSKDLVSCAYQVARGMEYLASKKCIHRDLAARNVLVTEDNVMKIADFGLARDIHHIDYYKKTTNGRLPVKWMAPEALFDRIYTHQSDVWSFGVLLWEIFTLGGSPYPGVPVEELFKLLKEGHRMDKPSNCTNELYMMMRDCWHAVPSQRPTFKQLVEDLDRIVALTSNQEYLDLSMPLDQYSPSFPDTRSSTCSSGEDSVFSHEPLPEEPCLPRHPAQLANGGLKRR

T18 sequence (Q07912 whole entry): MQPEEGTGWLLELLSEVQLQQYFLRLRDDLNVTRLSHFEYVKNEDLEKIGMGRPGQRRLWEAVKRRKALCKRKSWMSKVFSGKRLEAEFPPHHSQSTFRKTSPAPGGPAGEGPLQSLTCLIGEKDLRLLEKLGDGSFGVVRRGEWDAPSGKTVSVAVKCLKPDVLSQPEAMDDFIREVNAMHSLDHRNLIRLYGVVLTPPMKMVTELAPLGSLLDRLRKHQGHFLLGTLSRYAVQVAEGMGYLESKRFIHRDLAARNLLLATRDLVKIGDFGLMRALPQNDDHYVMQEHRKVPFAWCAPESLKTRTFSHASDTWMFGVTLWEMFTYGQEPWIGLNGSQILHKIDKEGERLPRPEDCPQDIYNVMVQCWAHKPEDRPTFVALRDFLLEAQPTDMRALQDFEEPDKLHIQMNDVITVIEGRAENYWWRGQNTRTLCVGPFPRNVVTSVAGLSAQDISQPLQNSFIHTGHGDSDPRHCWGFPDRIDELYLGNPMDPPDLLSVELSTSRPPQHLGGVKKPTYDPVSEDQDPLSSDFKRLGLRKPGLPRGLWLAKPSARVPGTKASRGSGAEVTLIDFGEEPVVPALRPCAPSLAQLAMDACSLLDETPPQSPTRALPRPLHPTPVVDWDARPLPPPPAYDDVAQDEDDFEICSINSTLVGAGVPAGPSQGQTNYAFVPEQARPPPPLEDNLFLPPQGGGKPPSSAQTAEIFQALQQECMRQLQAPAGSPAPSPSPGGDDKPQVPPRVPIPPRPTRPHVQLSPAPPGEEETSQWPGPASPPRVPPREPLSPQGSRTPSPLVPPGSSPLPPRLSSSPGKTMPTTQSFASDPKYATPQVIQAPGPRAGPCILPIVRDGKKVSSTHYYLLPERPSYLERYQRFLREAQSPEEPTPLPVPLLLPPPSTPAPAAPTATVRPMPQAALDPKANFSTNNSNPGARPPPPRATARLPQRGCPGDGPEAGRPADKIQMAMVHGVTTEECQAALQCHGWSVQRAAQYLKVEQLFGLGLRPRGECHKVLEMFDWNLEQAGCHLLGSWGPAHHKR
T7 sequence (P29323 19-1055): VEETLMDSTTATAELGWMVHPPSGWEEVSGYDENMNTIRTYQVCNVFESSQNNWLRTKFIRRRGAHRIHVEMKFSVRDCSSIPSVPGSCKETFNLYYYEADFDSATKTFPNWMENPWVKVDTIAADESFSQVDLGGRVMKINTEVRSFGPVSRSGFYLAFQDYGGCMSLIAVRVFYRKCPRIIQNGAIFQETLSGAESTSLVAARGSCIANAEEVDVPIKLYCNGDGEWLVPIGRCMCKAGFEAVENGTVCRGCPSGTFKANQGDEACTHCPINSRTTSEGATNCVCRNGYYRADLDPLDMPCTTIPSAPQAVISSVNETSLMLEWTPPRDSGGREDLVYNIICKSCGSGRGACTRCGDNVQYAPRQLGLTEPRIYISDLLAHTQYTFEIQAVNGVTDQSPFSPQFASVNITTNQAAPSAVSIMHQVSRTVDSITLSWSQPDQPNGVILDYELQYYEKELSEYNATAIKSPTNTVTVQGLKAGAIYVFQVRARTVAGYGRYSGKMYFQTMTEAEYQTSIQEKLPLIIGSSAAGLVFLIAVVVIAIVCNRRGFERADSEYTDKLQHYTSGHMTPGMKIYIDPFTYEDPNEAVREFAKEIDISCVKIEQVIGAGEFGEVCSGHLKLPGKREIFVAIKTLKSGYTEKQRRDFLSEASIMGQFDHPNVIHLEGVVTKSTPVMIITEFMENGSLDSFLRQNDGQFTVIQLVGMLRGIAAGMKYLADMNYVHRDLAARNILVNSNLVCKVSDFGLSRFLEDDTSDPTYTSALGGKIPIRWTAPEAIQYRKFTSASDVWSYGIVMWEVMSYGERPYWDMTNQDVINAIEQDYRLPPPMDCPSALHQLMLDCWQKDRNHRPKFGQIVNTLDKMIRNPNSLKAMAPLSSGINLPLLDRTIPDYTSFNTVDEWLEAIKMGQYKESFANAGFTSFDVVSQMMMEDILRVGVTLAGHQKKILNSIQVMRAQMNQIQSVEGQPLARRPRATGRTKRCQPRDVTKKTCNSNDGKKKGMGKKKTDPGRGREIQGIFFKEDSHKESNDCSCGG
T8 sequence (P52333 822-1111 limits assumed): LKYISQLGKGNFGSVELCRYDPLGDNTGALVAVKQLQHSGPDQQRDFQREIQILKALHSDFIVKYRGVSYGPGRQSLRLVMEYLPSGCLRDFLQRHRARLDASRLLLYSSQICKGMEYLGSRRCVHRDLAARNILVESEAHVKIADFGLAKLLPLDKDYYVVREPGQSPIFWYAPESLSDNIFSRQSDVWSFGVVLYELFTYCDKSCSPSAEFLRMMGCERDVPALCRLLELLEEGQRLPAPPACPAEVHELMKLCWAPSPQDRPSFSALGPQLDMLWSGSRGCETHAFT
T4 sequence (O43683 whole entry): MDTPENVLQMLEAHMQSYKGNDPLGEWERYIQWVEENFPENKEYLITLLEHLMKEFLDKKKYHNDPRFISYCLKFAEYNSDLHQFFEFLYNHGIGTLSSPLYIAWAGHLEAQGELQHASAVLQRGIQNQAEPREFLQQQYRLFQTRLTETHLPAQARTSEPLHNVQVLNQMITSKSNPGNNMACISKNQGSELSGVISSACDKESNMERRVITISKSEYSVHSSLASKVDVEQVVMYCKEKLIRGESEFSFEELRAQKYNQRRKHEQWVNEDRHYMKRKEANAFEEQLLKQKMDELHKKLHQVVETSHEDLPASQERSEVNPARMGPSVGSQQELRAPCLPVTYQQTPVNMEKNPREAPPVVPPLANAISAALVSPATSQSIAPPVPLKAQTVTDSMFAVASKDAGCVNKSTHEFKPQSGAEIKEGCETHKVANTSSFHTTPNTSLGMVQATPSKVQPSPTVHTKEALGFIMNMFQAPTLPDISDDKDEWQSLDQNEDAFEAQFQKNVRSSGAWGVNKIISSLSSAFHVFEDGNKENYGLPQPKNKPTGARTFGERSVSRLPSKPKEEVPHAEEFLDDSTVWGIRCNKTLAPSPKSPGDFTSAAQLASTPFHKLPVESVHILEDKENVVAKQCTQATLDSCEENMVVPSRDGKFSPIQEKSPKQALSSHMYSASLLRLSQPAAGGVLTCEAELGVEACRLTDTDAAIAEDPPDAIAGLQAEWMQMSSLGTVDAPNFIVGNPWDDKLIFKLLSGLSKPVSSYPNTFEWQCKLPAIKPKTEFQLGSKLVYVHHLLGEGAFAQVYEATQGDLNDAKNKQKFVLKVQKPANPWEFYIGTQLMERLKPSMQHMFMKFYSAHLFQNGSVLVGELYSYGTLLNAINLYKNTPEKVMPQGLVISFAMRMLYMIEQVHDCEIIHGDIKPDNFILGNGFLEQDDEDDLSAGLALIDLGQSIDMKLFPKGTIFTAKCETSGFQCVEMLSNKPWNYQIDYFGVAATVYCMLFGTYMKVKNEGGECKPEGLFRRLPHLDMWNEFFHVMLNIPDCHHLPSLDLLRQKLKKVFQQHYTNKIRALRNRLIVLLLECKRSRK
T15 sequence (P41743 whole entry): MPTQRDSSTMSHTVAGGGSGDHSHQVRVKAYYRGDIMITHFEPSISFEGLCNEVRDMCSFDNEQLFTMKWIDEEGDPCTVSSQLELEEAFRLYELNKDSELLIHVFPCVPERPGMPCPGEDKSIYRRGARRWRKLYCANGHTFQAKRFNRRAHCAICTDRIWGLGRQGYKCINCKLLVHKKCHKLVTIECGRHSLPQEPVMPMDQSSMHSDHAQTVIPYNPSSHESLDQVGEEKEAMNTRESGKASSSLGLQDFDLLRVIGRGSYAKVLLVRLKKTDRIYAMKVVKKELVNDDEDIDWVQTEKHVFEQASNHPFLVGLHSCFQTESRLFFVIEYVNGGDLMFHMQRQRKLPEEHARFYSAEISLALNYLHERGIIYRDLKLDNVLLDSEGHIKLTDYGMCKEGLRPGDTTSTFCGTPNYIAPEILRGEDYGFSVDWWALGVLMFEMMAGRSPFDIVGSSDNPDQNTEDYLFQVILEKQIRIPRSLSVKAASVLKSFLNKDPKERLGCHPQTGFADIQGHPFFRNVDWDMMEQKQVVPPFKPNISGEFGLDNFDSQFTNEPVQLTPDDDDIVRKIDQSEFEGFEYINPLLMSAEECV

O=C(Nc1ccc(Oc2ncnc3[nH]ncc23)cc1)Nc1ccc(Cl)c(C(F)(F)F)c1 [Compound 1, 1-(4-(1H-pyrazolo[3,4-d]pyrimidin-4-yloxy)phenyl)-3-(4-chloro-3-(trifluoromethyl)phenyl)urea]
IC50 (DMPK): > 10000 nM

CC(C)(C)c1cc(NC(=O)Nc2ccc(Oc3ncnc4[nH]ncc34)c(F)c2)no1 [SKLB-677, 1-(4-(1H-pyrazolo[3,4-d]pyrimidin-4-yloxy)-3-fluorophenyl)-3-(5-tert-butylisoxazol-3-yl)urea]
remaining binding at 10 µM (ARK5): 47%
remaining binding at 10 µM (BMPR2): 14%
remaining binding at 10 µM (BUB1): 66%
remaining binding at 10 µM (EGFR(T790M)): 74%
remaining binding at 10 µM (EPHA8): 0.1%
remaining binding at 10 µM (EPHB2): 5.2%
remaining binding at 10 µM [1]: 14%
remaining binding at 10 µM (JNK2): 2%
remaining binding at 10 µM (KIT(A829P)): 15%
remaining binding at 10 µM (PAK3): 6.4%
remaining binding at 10 µM (PDGFRA): 0.25%
remaining binding at 10 µM (PKMYT1): 100%
remaining binding at 10 µM (PKN2): 100%
remaining binding at 10 µM (PRKCI): 79%
remaining binding at 10 µM (STK36): 97%
remaining binding at 10 µM (SYK): 25%
remaining binding at 10 µM (TNK2): 37%
Kd (FGFR1): 600 nM
